Assays:
Settings in all cases: one-leaf stage, 80 g/ha, assessed visually after about 3 weeks vs untreated controls, 100% = plants have died
ECHCG = experiment: Post-emergence herbicidal effect against ECHCG; assay type: in vivo, Echinochloa crus-galli
In short: (§1)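 Greenhouse post-emergence test; one-leaf stage (2–3 wk post-sowing), sandy loam. Spray: WP/EC in water, 600–800 l/ha, 0.2% wetting agent, onto green parts. Visual rating ~3 wk later, % vs untreated (100% = dead, 0% = like control).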

LOLRI = experiment: Post-emergence herbicidal effect against LOLRI; assay type: in vivo, Lolium rigidum
In short: as §1

SETVI = experiment: Post-emergence herbicidal effect against SETVI; assay type: in vivo, Setaria viridis
In short: as §1

HORMU = experiment: Post-emergence herbicidal effect against HORMU; assay type: in vivo, Hordeum murinum
Procedure: Seeds of monocotyledonous and dicotyledonous weed and crop plants are laid out in sandy loam soil in wood-fiber pots, covered with soil and cultivated in a greenhouse under good growth conditions. 2 to 3 weeks after sowing, the test plants are treated at the one-leaf stage. The compounds of the invention, formulated in the form of wettable powders (WP) or as emulsion concentrates (EC), are then sprayed onto the green parts of the plants as aqueous suspension or emulsion at a water application rate equating to 600 to 800 l/ha with addition of 0.2% wetting agent. After the test plants have been left to stand in the greenhouse under optimal growth conditions for about 3 weeks, the action of the preparations is assessed visually in comparison to untreated controls (herbicidal action in percent (%): 100% activity=the plants have died, 0% activity=like control plants).

ALOMY = experiment: Post-emergence herbicidal effect against ALOMY; assay type: in vivo, Alopecurus myosuroides
In short: as §1

AVEFA = experiment: Post-emergence herbicidal effect against AVEFA; assay type: in vivo, Avena fatua
In short: as §1

DIGSA = experiment: Post-emergence herbicidal effect against DIGSA; assay type: in vivo, Digitaria sanguinalis
In short: as §1

Row | SMILES | Post-emergence action [%] against ECHCG (ECHCG) [%] | Post-emergence action [%] against LOLRI (LOLRI) [%] | Post-emergence action [%] against SETVI (SETVI) [%] | Post-emergence action [%] against HORMU (HORMU) [%] | Post-emergence action [%] against ALOMY (ALOMY) [%] | Post-emergence action [%] against AVEFA (AVEFA) [%] | Post-emergence action [%] against DIGSA (DIGSA) [%]
1 | CC#Cc1cc(C)c(C2=C(OC(=O)OCC)C3(CCC(OC(C)C)CC3)NC2=O)c(Cl)c1 (stereo not drawn) [Example P15] | 100 | 100 | 100 | 90 | 100 | 100 | 100
2 | CC#Cc1cc(C)c(C2=C(OC(=O)OCC)C3(CCC(OCC)CC3)NC2=O)c(Cl)c1 (stereo not drawn) [Example P16] | 100 | 100 | 100 | 100 | 100 | 100 | 100
3 | CC#Cc1cc(C)c(C2=C(OC(=O)OCC)C3(CCCC(OCCC)C3)NC2=O)c(Cl)c1 (stereo not drawn) [Example Q5] | 100 | 100 | 100 | 100 | 100 | 100 | 100

— patent publication US20220151230A1, “SPECIFICALLY SUBSTITUTED 3-(2-HALOGEN-6-ALKYL-4-PROPINYLPHENYL)-3-PYRROLIN-2-ONES AND TO THE USE THEREOF AS HERBICIDES” (Bayer Aktiengesellschaft, priority 2019, published 2022)
